# ChEMBL document CHEMBL6074684, “Structure-activity relationship study of novel evodiamine amino acid conjugates with potent anti-colorectal cancer efficacy” (Eur J Med Chem, 2025)
# Calls of active or inactive are those of the source. No cut-off for these calls is given here.
# Key:
# HT-29 [1] = assay: Antiproliferative activity against human HT-29 cells assessed as inhibition of cell growth incubated for 72 hrs by MTT assay; type: functional, cell-based; settings: HT-29, 72 h
# HCT-116 = assay: Antiproliferative activity against human […] cells assessed as inhibition of cell growth incubated for 72 hrs by MTT assay; type: functional, cell-based; settings: HCT-116, 72 h
# LoVo [2] = assay: Antiproliferative activity against human LoVo cells assessed as inhibition of cell growth incubated for 72 hrs by MTT assay; type: functional, cell-based
# RKO [3] = assay: Antiproliferative activity against human RKO cells assessed as inhibition of cell growth incubated for 72 hrs by MTT assay; type: functional, cell-based
# HGC-27 = assay: Antiproliferative activity against human HGC-27 cells assessed as inhibition of cell growth incubated for 72 hrs by MTT assay; type: functional, cell-based; settings: HGC-27, 72 h
# MGC-803 = assay: Antiproliferative activity against human MGC-803 cells assessed as inhibition of cell growth incubated for 72 hrs by MTT assay; type: functional, cell-based; settings: MGC-803, 72 h
# SGC-7901 = assay: Antiproliferative activity against human SGC-7901 cells assessed as inhibition of cell growth incubated for 72 hrs by MTT assay; type: functional, cell-based; settings: SGC-7901, 72 h
# Huh-7 = assay: Antiproliferative activity against human Huh-7 cells assessed as inhibition of cell growth incubated for 72 hrs by MTT assay; type: functional, cell-based; settings: Huh-7, 72 h
# SK-HEP1 = assay: Antiproliferative activity against human SK-HEP1 cells assessed as inhibition of cell growth incubated for 72 hrs by MTT assay; type: functional, cell-based; settings: SK-HEP1, 72 h
# MCF7 = assay: Antiproliferative activity against human MCF7 cells assessed as inhibition of cell growth incubated for 72 hrs by MTT assay; type: functional, cell-based; settings: MCF7, 72 h
# [4] = molecular target: T1, DNA topoisomerase 1 (Homo sapiens) (UniProt P11387); assay: Inhibition of topoisomerase 1 (unknown origin) mediated DNA relaxation at 100 uM preincubated for 20 mins followed by pBR322 plasmid DNA addition and measured after 15 mins by red nucleic acid gel staining based agarose gel electrophoresis; settings: time 35.0 min
# T1 sequence (whole entry): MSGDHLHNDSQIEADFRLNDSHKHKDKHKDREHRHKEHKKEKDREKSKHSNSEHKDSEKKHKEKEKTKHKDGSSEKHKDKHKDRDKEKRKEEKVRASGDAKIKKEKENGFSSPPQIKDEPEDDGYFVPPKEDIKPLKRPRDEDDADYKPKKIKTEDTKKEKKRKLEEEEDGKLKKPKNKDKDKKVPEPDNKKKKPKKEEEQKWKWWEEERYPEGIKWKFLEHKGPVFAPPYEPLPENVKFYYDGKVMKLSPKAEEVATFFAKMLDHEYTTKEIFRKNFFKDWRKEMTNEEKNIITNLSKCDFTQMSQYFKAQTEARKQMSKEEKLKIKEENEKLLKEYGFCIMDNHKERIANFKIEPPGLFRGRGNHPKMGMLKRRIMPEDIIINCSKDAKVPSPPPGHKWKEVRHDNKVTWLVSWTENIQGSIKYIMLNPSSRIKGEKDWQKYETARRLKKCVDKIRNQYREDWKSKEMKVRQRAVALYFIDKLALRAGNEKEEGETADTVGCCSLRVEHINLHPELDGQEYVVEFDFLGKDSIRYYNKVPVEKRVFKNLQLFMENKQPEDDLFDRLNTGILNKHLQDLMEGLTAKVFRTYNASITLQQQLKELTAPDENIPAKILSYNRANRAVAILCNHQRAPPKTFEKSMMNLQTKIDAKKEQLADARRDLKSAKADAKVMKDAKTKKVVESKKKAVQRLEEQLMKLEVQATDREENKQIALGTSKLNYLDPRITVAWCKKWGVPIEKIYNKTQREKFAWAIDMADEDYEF
# [5] = Aqueous solubility of compound by HPLC analysis; type: physicochemical
# HT-29 [6] = assay: Antitumor activity against human HT-29 cells xenografted in male BALB/c nude mouse assessed as tumor growth inhibition at 0.5 mg/kg, ip administered once daily for 14 days relative to control; type: functional; settings: HT-29, 336 h, time 14 day, read-out: TGI
# LoVo [7] = assay: Antitumor activity against human LoVo cells xenografted in male BALB/c nude mouse assessed as tumor growth inhibition at 0.5 mg/kg, ip administered once daily for 14 days; type: functional, organism-based; settings: time 14.0 day
# [8] = Toxicity in male BALB/c nude mouse xenografted with human LoVo cells assessed as body weight loss at 0.5 mg/kg, ip administered once daily for 14 days; type: organism-based; settings: in vivo, 336 h, time 14 day
# [9] = Toxicity in male BALB/c nude mouse xenografted with human LoVo cells assessed as animal death at 0.5 mg/kg, ip administered once daily for 14 days; type: organism-based; settings: in vivo, 336 h, time 14 day
# [10] = Toxicity in male BALB/c nude mouse xenografted with human HT-29 cells assessed as body weight loss at 0.5 mg/kg, ip administered once daily for 14 days; type: organism-based; settings: in vivo, 336 h, time 14 day
# [11] = Toxicity in male BALB/c nude mouse xenografted with human HT-29 cells assessed as animal death at 0.5 mg/kg, ip administered once daily for 14 days; type: organism-based; settings: in vivo, 336 h, time 14 day
# [12] = Half-life in male Sprague-Dawley rat at 50 mg/kg, ip measured after 24 hrs by LC-MS/MS analysis; type: ADME, organism-based; settings: in vivo
# [13] = Tmax in male Sprague-Dawley rat at 50 mg/kg, ip measured after 24 hrs by LC-MS/MS analysis; type: ADME, organism-based; settings: in vivo
# [14] = Cmax in male Sprague-Dawley rat at 50 mg/kg, ip measured after 24 hrs by LC-MS/MS analysis; type: ADME, organism-based; settings: in vivo
# [15] = AUC (0 to t) in male Sprague-Dawley rat at 50 mg/kg, ip measured after 24 hrs by LC-MS/MS analysis; type: ADME, organism-based; settings: in vivo
# LoVo [16] = assay: Antiproliferative activity against human LoVo cells assessed as reduction in cell viability measured after 24 hrs; type: functional, cell-based; settings: dose 40-200 nmol/L
# RKO [17] = assay: Antiproliferative activity against human RKO cells assessed as reduction in cell viability measured after 24 hrs; type: functional, cell-based; settings: dose 40-200 nmol/L
# LoVo [18] = assay: Cell cycle arrest in human LoVo cells assessed as accumulation of cells at G1 phase cells at 90 nM incubated for 24 hrs by […]PI staining based flow cytometric analysis (reference value: 29.69 %); type: functional
# LoVo [19] = assay: Cell cycle arrest in human LoVo cells assessed as accumulation of cells at G2 phase cells at 90 nM incubated for 24 hrs by […]PI staining based flow cytometric analysis (reference value: 14.84 %); type: functional
# LoVo [20] = assay: Cell cycle arrest in human LoVo cells assessed as accumulation of cells at S phase cells at 90 nM incubated for 24 hrs by […]PI staining based flow cytometric analysis (reference value: 54.99 %); type: functional
# RKO [21] = assay: Cell cycle arrest in human RKO cells assessed as accumulation of cells at G1 phase at 90 nM incubated for 24 hrs by […]PI staining based flow cytometric analysis (reference value: 35.29 %); type: functional
# RKO [22] = assay: Cell cycle arrest in human RKO cells assessed as accumulation of cells at G2 phase at 90 nM incubated for 24 hrs by […]PI staining based flow cytometric analysis (reference value: 20.07 %); type: functional
# RKO [23] = assay: Cell cycle arrest in human RKO cells assessed as accumulation of cells at S phase at 90 nM incubated for 24 hrs by […]PI staining based flow cytometric analysis (reference value: 43.36 %); type: functional
# LoVo [24] = assay: Induction of morphological changes in human LoVo cells assessed as appearance of condensed morphology at 90 nM incubated for 24 hrs by Giemsa staining based microscopic analysis; type: functional, cell-based
# LoVo [25] = assay: Induction of morphological changes in human LoVo cells assessed as appearance of contracted nucleus at 90 nM incubated for 24 hrs by Giemsa staining based microscopic analysis; type: functional, cell-based
# RKO [26] = assay: Induction of morphological changes in human RKO cells assessed as appearance of condensed morphology at 90 nM incubated for 24 hrs by Giemsa staining based microscopic analysis; type: functional, cell-based
# RKO [27] = assay: Induction of morphological changes in human RKO cells assessed as appearance of contracted nucleus at 90 nM incubated for 24 hrs by Giemsa staining based microscopic analysis; type: functional, cell-based
# LoVo [28] = assay: Induction of apoptosis in human LoVo cells assessed as apoptosis rate at 90 nM incubated for 24 hrs by Annexin V/PI staining based flow cytometric analysis (reference value: 4.71 %); type: functional
# RKO [29] = assay: Induction of apoptosis in human RKO cells assessed as apoptosis rate at 90 nM incubated for 24 hrs by Annexin V/PI staining based flow cytometric analysis (reference value: 4.87 %); type: functional
# [30] = Apparent clearance during terminal phase in male Sprague-Dawley rat at 50 mg/kg, ip measured after 24 hrs by LC-MS/MS analysis; type: ADME, organism-based; settings: in vivo, read-out: CLz/F (converted)
# Mitochondrial membrane [31] = assay: Induction of mitochondrial membrane potential loss in human LoVo cells assessed as decrease in TMRE positive cells at 90 nM incubated for 24 hrs by TMRE staining based flow cytometric analysis; type: cell membranes
# Mitochondrial membrane [32] = assay: Induction of mitochondrial membrane potential loss in human RKO cells assessed as decrease in TMRE positive cells at 90 nM incubated for 24 hrs by TMRE staining based flow cytometric analysis; type: cell membranes
# LoVo [33] = assay: Antitumor activity against human LoVo cells xenografted in male BALB/c nude mouse assessed as tumor growth inhibition at 40 mg/kg, ip administered once daily for 14 days relative to control; type: functional; settings: 336 h, time 14 day, read-out: TGI
# [34] = Toxicity in male BALB/c nude mouse xenografted with human LoVo cells assessed as body weight loss at 40 mg/kg, ip administered once daily for 14 days; type: organism-based; settings: in vivo, 336 h, time 14 day
smiles,measurement,setting,value
CC(C)(C)OC(=O)N[C@@H](CCC(N)=O)C(=O)Oc1ccc2[nH]c3c(c2c1)CCN1C(=O)c2cc(F)ccc2N(c2cccc(F)c2)[C@@H]31,IC50,HT-29 [1],26.8 µM
same,IC50,HCT-116,19.2 µM
same,IC50,LoVo [2],12.7 µM
same,IC50,RKO [3],9.3 µM
same,IC50,HGC-27,18.8 µM
same,IC50,MGC-803,15.1 µM
same,IC50,SGC-7901,59.6 µM
same,IC50,Huh-7,11.5 µM
same,IC50,SK-HEP1,37 µM
same,IC50,MCF7,24.6 µM
same,inhibition,[4],Active; Better Activity Than Evodiamine
O=C1c2cc(F)ccc2N(c2cccc(F)c2)C2c3[nH]c4ccc(O)cc4c3CCN12 (racemic),IC50,HT-29 [1],0.16 µM
same,IC50,HCT-116,0.2 µM
same,IC50,LoVo [2],0.35 µM
same,IC50,RKO [3],0.17 µM
same,solubility,[5],7.58 µg/mL
same,inhibition,[4],Active; Little Effect Observed
CC[C@@]1(O)C(=O)OCc2c1cc1n(c2=O)Cc2cc3c(CN(C)C)c(O)ccc3nc2-1 [TOPOTECAN],inhibition in vivo at 0.5 mg/kg,HT-29 [6],70.7%
same,Activity,LoVo [7],Active
same,Activity,[8],Toxic
same,Activity,[9],Toxic
same,Activity,[10],Toxic
same,Activity,[11],Toxic
O=C1c2cc(F)ccc2N(c2cccc(F)c2)[C@@H]2c3[nH]c4ccc(O)cc4c3CCN12,IC50,HT-29 [1],0.21 µM
same,IC50,HCT-116,0.27 µM
same,IC50,LoVo [2],0.17 µM
same,IC50,RKO [3],0.13 µM
same,solubility,[5],3.24 µg/mL
same,half-life,[12],4.18 h
same,Tmax,[13],0.5 h
same,Cmax,[14],2190 ng/mL
same,AUC(0-t) at 24 h,[15],4350 ng·h/mL
same,Activity,LoVo [16],Dose-dependent-effect
same,Activity,RKO [17],Dose-dependent-effect
same,Activity,LoVo [18],18.84%
same,Activity,LoVo [19],31.88%
same,Activity,LoVo [20],48.04%
same,Activity,RKO [21],35.52%
same,Activity,RKO [22],42.34%
same,Activity,RKO [23],21.88%
same,Activity,LoVo [24],Active
same,Activity,LoVo [25],Active
same,Activity,RKO [26],Active
same,Activity,RKO [27],Active
same,Activity,LoVo [28],25.44%
same,Activity,RKO [29],13.9%
same,CL/F,[30],77.8 mL/min/kg
same,Activity,Mitochondrial membrane [31],Active
same,Activity,Mitochondrial membrane [32],Active
same,inhibition in vivo at 40 mg/kg,LoVo [33],51.2%
same,Activity,[34],Toxic
